One assay concerns H1650. The assay is described as follows: Proliferation Assays (NSCLC cell line sensitivity). In kind it is cell-based. The note with it: KRAS WT, EGFR E746 A750del (exon19).
Another assay concerns NCI-H23. Briefly: Proliferation Assays (NSCLC cell line sensitivity). In kind it is cell-based.
The test system of the next assay is Calu-3. The assay is described as follows: Proliferation Assays (NSCLC cell line sensitivity). In kind it is cell-based. Conditions: ACA, KRAS WT, EGFR wt (HER2+).
For the next assay, the system named is H1703. Briefly: Proliferation Assays (NSCLC cell line sensitivity). It counts as cell-based. Conditions: KRAS WT, EGFR WT.
The subject of assay [1] is panel of NSCLC cell lines. Briefly: Proliferation Assays, panel of NSCLC cell lines. In kind it is cell-based. Conditions: various degrees of sensitivity.
For the next assay, the system named is H3255. Briefly: Proliferation Assays (NSCLC cell line sensitivity). In kind it is cell-based. Conditions: EGFR L858R.
A further assay relates to HCC15. Briefly: Proliferation Assays (NSCLC cell line sensitivity). It counts as cell-based. The note with it: SQC, KRAS WT, EGFR WT.
The next assay has as its system H2009. The assay is described as follows: Proliferation Assays (NSCLC cell line sensitivity). It counts as cell-based. The note with it: KRAS MUT, EGFR WT.
A further assay deals with H520. Briefly: Proliferation Assays (NSCLC cell line sensitivity). In kind it is cell-based. The note with it: KRAS WT, EGFR WT.
The next assay deals with H2122. The assay is described as follows: Proliferation Assays (NSCLC cell line sensitivity). In kind it is cell-based. Conditions: KRAS MUT, EGFR WT.
Another assay has as its system H1975. Briefly: Proliferation Assays (NSCLC cell line sensitivity). In kind it is cell-based. The note with it: ACA, KRAS WT, EGFR L858R, T790M.
The next assay concerns HCC95. The assay is described as follows: Proliferation Assays (NSCLC cell line sensitivity). Conditions: SQC, KRAS WT, EGFR WT. In kind it is cell-based.
In a further assay the test system is H2126. Briefly: Proliferation Assays (NSCLC cell line sensitivity). In kind it is cell-based.
The next assay concerns A549. Briefly: Proliferation Assays (NSCLC cell line sensitivity). It counts as cell-based.
A further assay has as its system H157. The assay is described as follows: Proliferation Assays (NSCLC cell line sensitivity). It counts as cell-based.
The subject of another assay is H460. The assay is described as follows: Proliferation Assays (NSCLC cell line sensitivity). It counts as cell-based.
The subject of a further assay is H226. Briefly: Proliferation Assays (NSCLC cell line sensitivity). Conditions: KRAS WT, EGFR WT. It counts as cell-based.
Another assay deals with H1299. The assay is described as follows: Proliferation Assays (NSCLC cell line sensitivity). It counts as cell-based. Conditions: KRAS WT, EGFR WT.
A further assay deals with H441. Briefly: Proliferation Assays (NSCLC cell line sensitivity). Conditions: BAC, KRAS MUT, EGFR WT. It counts as cell-based.
The test system of a further assay is A549 xenografts. The assay is described as follows: A549 xenograft in nude mice. It counts as in vivo, athymic nude mice. The note with it: erlotinib 40 mg/kg 3× per week oral gavage, Compound 1 5 mg/kg/daily oral gavage, Day 26 to day 53. From the text:
(§1) A549 adenocarcinoma or H1975 cells in single cell suspension were implanted into the posterior flanks of athymic nude mice. […] For the A549 xenograft, the treatments were started on Day 26 after implantation and were stopped on day 53, while for the H1975 xenograft, the treatments were started on day 17 after implantation and were stopped on day 30.

The subject of a further assay is H1975 xenografts. The assay is described as follows: H1975 xenograft in nude mice. In kind it is in vivo, athymic nude mice. Conditions: erlotinib 40 mg/kg 3× per week oral gavage, Compound 1 5 mg/kg/daily oral gavage, day 17 to day 30.
Excerpt: as §1

Read-outs that look alike come from different tables or passages of the source.

With `CO[C@H]1CC[C@H](N2C(=O)CNc3ncc(-c4ccc(C(C)(C)O)nc4)nc32)CC1` [Compound 1, 7-(6-(2-hydroxypropan-2-yl)pyridin-3-yl)-1-((1r,4r)-4-methoxycyclohexyl)-3,4-dihydropyrazino-[2,3-b]pyrazin-2(1H)-one], the IC50 in the assay on H1650 (ACA) was 5.2 µM; in the assay with NCI-H23 (NCI-H23, ACA, KRAS MUT 12 mutation G12C, read-out: IC50) it was 3 µM; with Calu-3 it was 0.184 µM; in the assay with H1703 (SCC) it was 1.64 µM; in the assay on H3255 (ACA), 11.9 µM; in the assay with HCC15 it was 6.37 µM. The IC50 was determined as 5.05 µM in the assay with H2009 (ACA); 0.374 µM with H520 (SQC); 1.59 µM in the assay on H2122 (ACA); 0.25 µM in the assay with H1975; 0.724 µM with HCC95; 0.214 µM in the assay on H2126 (H2126, ACA, KRAS WT, EGFR WT, read-out: IC50). Also, the half-maximal inhibitory concentration (IC50) with A549 (A549, ACA, KRAS MUT G125, EGFR WT, read-out: IC50) was 0.58 µM; with H157 (H157, SQC, KRAS MUT, EGFR WT), 2.61 µM; in the assay with H460 (H460, LCC, KRAS MUT G61H, EGFR WT, read-out: IC50), 0.153 µM; with H226 (SQC) it was 1.98 µM; with H1299 (Large Cell Neuroendocrin), 3.09 µM; with H441 (ACA) it was 0.392 µM. Moreover, the anti-proliferative activity entry in assay [1] is on record as “demonstrated anti-proliferative activity”.
For the compound `C#Cc1cccc(Nc2ncnc3cc(OCCOC)c(OCCOC)cc23)c1` [Erlotinib, erlotinib], the IC50 in the assay with H1650 (Homo sapiens, NCI-H1650, ACA) is 2.84 µM; in the assay with NCI-H23 (Homo sapiens, NCI-H23, read-out: IC50 (value in parentheses beside > 10 μM)), 22.8 µM; with NCI-H23 (Homo sapiens, NCI-H23, ACA, KRAS MUT 12 mutation G12C, read-out: IC50) it was above 10 µM; in the assay with Calu-3 (Homo sapiens), 7.09 µM; in the assay on H1703 (Homo sapiens, NCI-H1703, SCC), above 10 µM; in the assay on H3255 (Homo sapiens, NCI-H3255, ACA), 0.205 µM. Also, the half-maximal inhibitory concentration (IC50) with HCC15 was above 10 µM; with H2009 (Homo sapiens, NCI-H2009, ACA), 15.3 µM; in the assay on H520 (Homo sapiens, NCI-H520, SQC), above 10 µM; in the assay with H2122 (Homo sapiens, NCI-H2122, ACA), above 10 µM; in the assay with HCC95 (Homo sapiens) it was 6.45 µM; with H2126 (Homo sapiens, NCI-H2126, read-out: IC50 (value in parentheses beside > 10 μM)) it was 19.8 µM. Moreover, the IC50 in the assay with H2126 (Homo sapiens, NCI-H2126, H2126, ACA, KRAS WT, EGFR WT, read-out: IC50) is above 10 µM; in the assay on A549 (Homo sapiens, A549, read-out: IC50 (value in parentheses beside > 10 μM)) it was 25.2 µM; in the assay with A549 (Homo sapiens, A549, ACA, KRAS MUT G125, EGFR WT, read-out: IC50), above 10 µM; in the assay with H157 (Homo sapiens, NCI-H157), above 10 µM; with H460 (Homo sapiens, NCI-H460, read-out: IC50 (value in parentheses beside > 10 μM)), 18 µM; in the assay on H460 (Homo sapiens, NCI-H460, H460, LCC, KRAS MUT G61H, EGFR WT, read-out: IC50) it was above 10 µM. The concentration for half-maximal inhibition (IC50) in the assay with H226 (Homo sapiens, NCI-H226, SQC) was above 10 µM; in the assay on H1299 (Homo sapiens, NCI-H1299, Large Cell Neuroendocrin), above 10 µM; in the assay on H441 (Homo sapiens, NCI-H441, ACA), above 10 µM. Besides, the “tumor growth during treatment” value was “resistant” with A549 xenografts and “moderately sensitive” in the assay with H1975 xenografts. Also, the anti-proliferative activity entry in assay [1] is given as “demonstrated anti-proliferative activity”.

Usually IC50 stands for the concentration at which inhibition is half-maximal.
